Laboratory results published in ChEMBL document CHEMBL3044586, “Design, synthesis, and anticonvulsant screening of some substituted piperazine and aniline derivatives of 5-phenyl-oxazolidin-2,4-diones and 5,5-diphenylimidazolidin-2,4 diones” (Med Chem Res, 2012).
Calls of active or inactive are those of the source. The rule behind the calls is not given here.

Columns and labels:
Mus musculus [1] = assay: Neurotoxicity against Mus musculus Swiss albino (mouse) assessed as inability to maintain equilibrium on rod at 30 to 300 mg/kg, ip measured after 0.5 hr by rotarod test; type: toxicity, organism-based; parameters: dose 30-300 mg/kg, route intraperitoneal; conditions: in vivo
Mus musculus [2] = assay: Anticonvulsant activity in Mus musculus Swiss albino (mouse) assessed as reduction in maximal electroshock-induced seizure at 30 to 300 mg/kg, ip measured after 4 hr; type: functional, organism-based
Mus musculus [3] = assay: Anticonvulsant activity in Mus musculus Swiss albino (mouse) assessed as reduction in maximal electroshock-induced seizure at 30 to 300 mg/kg, ip measured after 0.5 hr; type: functional, organism-based
Mus musculus [4] = assay: Neurotoxicity against Mus musculus Swiss albino (mouse) assessed as inability to maintain equilibrium on rod at 30 to 300 mg/kg, ip measured after 4 hr by rotarod test; type: toxicity, organism-based; parameters: dose 30-300 mg/kg, route intraperitoneal; conditions: in vivo
Mus musculus [5] = assay: Anticonvulsant activity in Mus musculus Swiss albino (mouse) assessed as reduction in maximal electroshock-induced seizure at 300 mg/kg, ip measured after 4 hr; type: functional, organism-based; parameters: dose 300 mg/kg
Mus musculus [6] = assay: Neurotoxicity against Mus musculus Swiss albino (mouse) assessed as inability to maintain equilibrium on rod at 300 mg/kg, ip measured after 4 hr by rotarod test; type: toxicity, organism-based; parameters: dose 300 mg/kg, route intraperitoneal; conditions: in vivo
Mus musculus [7] = assay: Anticonvulsant activity in Mus musculus Swiss albino (mouse) assessed as reduction in maximal electroshock-induced seizure at 30 mg/kg, ip measured after 4 hr; type: functional, organism-based; parameters: dose 30 mg/kg
Mus musculus [8] = assay: Anticonvulsant activity in Mus musculus Swiss albino (mouse) assessed as reduction in maximal electroshock-induced seizure at 100 mg/kg, ip measured after 0.5 hr; type: functional, organism-based; parameters: dose 100 mg/kg
Rattus norvegicus [9] = assay: Neurotoxicity against Rattus norvegicus Wistar (rat) assessed as inability to maintain equilibrium on rod at 30 mg/kg, po measured after 4 hr by rotarod test; type: toxicity, organism-based; parameters: dose 30 mg/kg, route oral; conditions: in vivo
Rattus norvegicus [10] = assay: Neurotoxicity against Rattus norvegicus Wistar (rat) assessed as inability to maintain equilibrium on rod at 30 mg/kg, po measured after 0.5 hr by rotarod test; type: toxicity, organism-based; parameters: dose 30 mg/kg, route oral; conditions: in vivo
Rattus norvegicus [11] = assay: Anticonvulsant activity in Rattus norvegicus Wistar (rat) assessed as reduction in maximal electroshock-induced seizures at 30 mg/kg, po measured after 4 hr; type: functional, organism-based; parameters: dose 30 mg/kg
Rattus norvegicus [12] = assay: Anticonvulsant activity in Rattus norvegicus Wistar (rat) assessed as reduction in maximal electroshock-induced seizures at 30 mg/kg, po measured after 0.5 hr; type: functional, organism-based; parameters: dose 30 mg/kg
Rattus norvegicus [13] = assay: Presynaptic agonist activity at 5HT1A receptor in Rattus norvegicus Wistar (rat) assessed as change in rectal temperature at 20 mg/kg, ip measured after 120 min (reference value: 0.0 +/- 0.1 degC); type: functional, organism-based; parameters: dose 20 mg/kg
Rattus norvegicus [14] = assay: Presynaptic agonist activity at 5HT1A receptor in Rattus norvegicus Wistar (rat) assessed as change in rectal temperature at 10 mg/kg, ip measured after 120 min (reference value: 0.0 +/- 0.1 degC); type: functional, organism-based; parameters: dose 10 mg/kg
Rattus norvegicus [15] = assay: Presynaptic agonist activity at 5HT1A receptor in Rattus norvegicus Wistar (rat) assessed as change in rectal temperature at 20 mg/kg, ip measured after 90 min (reference value: -0.2 +/- 0.1 degC); type: functional, organism-based; parameters: dose 20 mg/kg
Rattus norvegicus [16] = assay: Presynaptic agonist activity at 5HT1A receptor in Rattus norvegicus Wistar (rat) assessed as change in rectal temperature at 10 mg/kg, ip measured after 90 min (reference value: -0.2 +/- 0.1 degC); type: functional, organism-based; parameters: dose 10 mg/kg
Rattus norvegicus [17] = assay: Presynaptic agonist activity at 5HT1A receptor in Rattus norvegicus Wistar (rat) assessed as change in rectal temperature at 20 mg/kg, ip measured after 60 min (reference value: 0.0 +/- 0.1 degC); type: functional, organism-based; parameters: dose 20 mg/kg
Rattus norvegicus [18] = assay: Presynaptic agonist activity at 5HT1A receptor in Rattus norvegicus Wistar (rat) assessed as change in rectal temperature at 10 mg/kg, ip measured after 60 min (reference value: 0.0 +/- 0.1 degC); type: functional, organism-based; parameters: dose 10 mg/kg
Rattus norvegicus [19] = assay: Presynaptic agonist activity at 5HT1A receptor in Rattus norvegicus Wistar (rat) assessed as change in rectal temperature at 20 mg/kg, ip measured after 30 min (reference value: -0.1 +/- 0.1 degC); type: functional, organism-based; parameters: dose 20 mg/kg
Rattus norvegicus [20] = assay: Presynaptic agonist activity at 5HT1A receptor in Rattus norvegicus Wistar (rat) assessed as change in rectal temperature at 10 mg/kg, ip measured after 30 min (reference value: -0.1 +/- 0.1 degC); type: functional, organism-based; parameters: dose 10 mg/kg
Mus musculus [21] = assay: Antagonist activity at 5HT2A receptor in ip dosed Mus musculus Swiss albino (mouse) assessed as inhibition of +/-DOI-induced head twitching administered 60 min prior to +/-DOI-challenge measured for 20 min; type: functional; conditions: read-out: ID50 (the source's name)
Rattus norvegicus [22] = assay: Postsynaptic antagonist activity at 5HT1A receptor in Rattus norvegicus Wistar (rat) assessed as inhibition of 8-OH-DPAT-induced lower lip retraction at 10 to 20 mg/kg, ip administered 45 min prior to 8-OH-DPAT-challenge measured after 15 min; type: functional, organism-based
Mus musculus [23] = assay: Anticonvulsant activity in Mus musculus Swiss albino (mouse) assessed as reduction in maximal electroshock-induced seizure at 100 mg/kg, ip measured after 4 hr; type: functional, organism-based; parameters: dose 100 mg/kg
Mus musculus [24] = assay: Binding affinity to 5HT2A receptor in ip dosed Mus musculus Swiss albino (mouse) assessed as effect on +/-DOI-induced head twitching administered 60 min prior to +/-DOI-challenge measured for 20 min; type: functional, organism-based
Mus musculus [25] = assay: Neurotoxicity against Mus musculus Swiss albino (mouse) assessed as inability to maintain equilibrium on rod at 100 mg/kg, ip measured after 0.5 hr by rotarod test; type: toxicity, organism-based; parameters: dose 100 mg/kg, route intraperitoneal; conditions: in vivo

| Structure (SMILES) | Activity (Mus musculus [1]) | Activity (Mus musculus [2]) | Activity (Mus musculus [3]) | Activity (Mus musculus [4]) | Activity (Mus musculus [5]) | Activity (Mus musculus [6]) | other results |
| --- | --- | --- | --- | --- | --- | --- | --- |
| O=C1NC(c2ccccc2)(c2ccccc2)C(=O)N1CCNc1ccc(Cl)cc1 | Non-toxic | inactive | inactive | Non-toxic |  |  |  |
| O=C1OC(c2ccccc2)C(=O)N1CCN1CCN(c2ccc([N+](=O)[O-])cc2)CC1 (configuration not stated) | Non-toxic |  | inactive |  | Active | Toxic |  |
| O=C1OC(c2ccccc2)C(=O)N1CCNc1ccc(Cl)cc1 (configuration not stated) | Non-toxic |  |  | Non-toxic |  |  | Activity (Mus musculus [7]): Active; Activity (Mus musculus [8]): Active; Activity (Rattus norvegicus [9]): Non-toxic; Activity (Rattus norvegicus [10]): Non-toxic; Activity (Rattus norvegicus [11]): Active; Activity (Rattus norvegicus [12]): Active; deltaT (Rattus norvegicus [13]): -1.3 °C; deltaT (Rattus norvegicus [14]): -0.5 °C; deltaT (Rattus norvegicus [15]): -1.5 °C; deltaT (Rattus norvegicus [16]): -0.7 °C; deltaT (Rattus norvegicus [17]): -1.3 °C; deltaT (Rattus norvegicus [18]): -0.5 °C; deltaT (Rattus norvegicus [19]): -1.2 °C; deltaT (Rattus norvegicus [20]): -0.2 °C; ED50 (Mus musculus [21]): 8 mg/kg; inhibition (Rattus norvegicus [22]): Active |
| O=C1OC(c2ccccc2)C(=O)N1CCN1CCN(c2ccc(Cl)cc2)CC1 (configuration not stated) | Non-toxic | inactive | inactive | Non-toxic |  |  |  |
| O=C1NC(c2ccccc2)(c2ccccc2)C(=O)N1CCN1CCN(c2ccccn2)CC1 | Non-toxic | inactive | inactive | Non-toxic |  |  |  |
| COc1ccc(NCCN2C(=O)OC(c3ccccc3)C2=O)cc1 (configuration not stated) | Non-toxic |  | inactive | Non-toxic |  |  | Activity (Mus musculus [23]): Active; Activity (Rattus norvegicus [9]): Non-toxic; Activity (Rattus norvegicus [10]): Non-toxic; Activity (Rattus norvegicus [11]): inactive; Activity (Rattus norvegicus [12]): inactive; deltaT (Rattus norvegicus [13]): -1.3 °C; deltaT (Rattus norvegicus [14]): -0.7 °C; deltaT (Rattus norvegicus [15]): -1.5 °C; deltaT (Rattus norvegicus [16]): -0.8 °C; deltaT (Rattus norvegicus [17]): -1.5 °C; deltaT (Rattus norvegicus [18]): -0.8 °C; deltaT (Rattus norvegicus [19]): -1.1 °C; deltaT (Rattus norvegicus [20]): -0.5 °C; Activity (Mus musculus [24]): inactive; inhibition (Rattus norvegicus [22]): Active |
| O=C1NC(c2ccccc2)(c2ccccc2)C(=O)N1CCNc1ccc(O)cc1 | Non-toxic | inactive | inactive | Non-toxic |  |  |  |
| Cc1ccc(N2CCN(CCN3C(=O)NC(c4ccccc4)(c4ccccc4)C3=O)CC2)cc1 |  |  | inactive |  | Active | Toxic | Activity (Mus musculus [25]): Toxic |
| O=C1NC(c2ccccc2)(c2ccccc2)C(=O)N1CCN1CCN(c2ccc(Cl)cc2)CC1 | Non-toxic | inactive | inactive | Non-toxic |  |  |  |
| O=C1NC(c2ccccc2)(c2ccccc2)C(=O)N1CCN1CCN(c2ccc([N+](=O)[O-])cc2)CC1 | Non-toxic |  | inactive |  | Active | Toxic |  |
| O=C1OC(c2ccccc2)C(=O)N1CCNc1ccc(F)cc1 (configuration not stated) | Non-toxic |  | inactive |  | Active | Toxic |  |
